Among the test systems are Ramulariopsis gossypii; Fusarium oxysporum; Trichoderma asperellum; Fusarium solani; Escherichia coli UB1005; Candida albicans C627; Bacillus subtilis; Pseudomonas aeruginosa; Acinetobacter baumannii; Escherichia coli; Staphylococcus aureus; Micrococcus luteus.
Experiment in all cases: ≥ marks a high value that may be exact or a test limit, other limits are often not marked, values filed in µg/mL are converted to µM
The test system of test [1] is Pseudomonas syringae pv. tabaci.
Test [2] relates to Cryptococcus neoformans ATCC 28957.
For test [3], the system named is Pseudomonas aeruginosa ATCC 27853.
Test [4] concerns Staphylococcus aureus ATCC 25923.
Test [5] deals with Xanthomonas campestris pv. citri.
The test system of test [6] is Bacillus subtilis ATCC 23857.
Test [7] concerns Fusarium oxysporum f.sp. vasinfectum.
In test [8] the test system is Candida albicans ATCC 90028.
In test [9] the test system is Pectobacterium carotovorum.
Test [10] has as its system Escherichia coli ATCC 25922.
Test [11] deals with Bacillus cereus ATCC 14579.
Test [12] has as its system Staphylococcus aureus ATCC 29213.
Test [13] relates to Staphylococcus aureus ATCC 43300.
Test [14] relates to Bacillus subtilis CMCC 63501.
Test [15] relates to Enterococcus faecalis ATCC 29212.
Test [16] relates to Salmonella typhimurium ATCC 7731.
For test [17], the system named is Salmonella enterica subsp. enterica serovar Pullorum C79-13.
Test [18] concerns Staphylococcus epidermidis ATCC 12228.
Test [19] relates to Pseudomonas aeruginosa 213.
The test system of test [20] is Enterococcus faecium mic80.
Test [21] relates to Pseudomonas aeruginosa LES400.
Test [22] has as its system Pseudomonas aeruginosa H103.
The test system of test [23] is Escherichia coli ESBL 63103.
Test [24] has as its system Staphylococcus aureus C623.
The test system of test [25] is Escherichia coli ATCC 25322.
The subject of test [26] is Klebsiella pneumoniae ATCC 700603.
Test [27] concerns Fusarium graminearum PH-1.
In test [28] the test system is Corynebacterium glutamicum ATCC 13032.
Test [29] deals with Escherichia coli DH5alpha.
Test [30] concerns Stenotrophomonas maltophilia.

The MIC is the lowest concentration found to suppress growth. Lower therefore signals a more susceptible organism.

The structures appear in SMILES notation. Converted amounts (≈) assume the structure as drawn. Bounds are passed on as bounds.

In the case of `CSCC[C@H](NC(=O)[C@H](Cc1ccccc1)NC(=O)CNC(=O)[C@H](Cc1cnc[nH]1)NC(=O)[C@H](CC(C)C)NC(=O)[C@H](CO)NC(=O)CN)C(=O)N[C@@H](Cc1ccc(O)cc1)C(=O)N[C@@H](CCCN=C(N)N)C(=O)N[C@@H](Cc1ccc(O)cc1)C(=O)N[C@@H](CC(C)C)C(=O)N[C@@H](CCCCN)C(=O)N[C@@H](CC(N)=O)C(=O)N[C@@H](CCSC)C(=O)N[C@H](C(=O)N[C@@H](CC(C)C)C(=O)N[C@@H](CC(N)=O)C(=O)N[C@@H](CC(C)C)C(=O)N[C@@H](Cc1ccccc1)C(N)=O)C(C)C` [GSLHGFMYRYLKNMVLNLF], the MIC is 16 µM (≈ 36.8 µg/mL) in test [1]; 8 µM (≈ 18.4 µg/mL) in [2]; 32 µM (≈ 73.7 µg/mL) in [3]; 4 µM (≈ 9.21 µg/mL) with Ramulariopsis gossypii; ≥ 32 µM against Fusarium oxysporum; 4 µM (≈ 9.21 µg/mL) in test [4]. Also, the MIC in test [5] was ≥ 64 µM; in test [6], 8 µM (≈ 18.4 µg/mL); in [7], 8 µM (≈ 18.4 µg/mL); in test [8], 2.67 µM (≈ 6.15 µg/mL); against Trichoderma asperellum, ≥ 32 µM; against Fusarium solani, 16 µM (≈ 36.8 µg/mL). The figures for the MIC in test [9], in [10] and in [11] were ≥ 128 µM, 32 µM (≈ 73.7 µg/mL) and ≥ 64 µM, respectively.
As for `CC[C@H](C)[C@H](N)C(=O)N[C@@H](Cc1cnc[nH]1)C(=O)N[C@@H](CCCCN)C(=O)N[C@@H](Cc1ccccc1)C(=O)N[C@@H](Cc1c[nH]c2ccccc12)C(=O)N[C@@H](CCCN=C(N)N)C(=O)NCC(=O)NCC(=O)N[C@@H](CCCN=C(N)N)C(=O)N[C@@H](Cc1c[nH]c2ccccc12)C(=O)N[C@@H](Cc1ccccc1)C(=O)N[C@@H](CCCCN)C(=O)N[C@@H](Cc1cnc[nH]1)C(=O)N[C@H](C(N)=O)[C@@H](C)CC` [IHKFWRGGRWFKHI], the MIC in [12] was 16 µM (≈ 29.9 µg/mL); in [13], 32 µM (≈ 59.8 µg/mL); in test [3], 16 µM (≈ 29.9 µg/mL); in test [14], 16 µM (≈ 29.9 µg/mL); in test [15], 32 µM (≈ 59.8 µg/mL); in [16], ≥ 64 µM. The MIC in test [17] is 8 µM (≈ 14.9 µg/mL); against Escherichia coli UB1005, 8 µM (≈ 14.9 µg/mL); in test [18], 32 µM (≈ 59.8 µg/mL); in test [10] it was 8 µM (≈ 14.9 µg/mL).
As for `CC[C@H](C)[C@H](N)C(=O)N[C@@H](CCCCN)C(=O)N[C@@H](Cc1c[nH]c2ccccc12)C(=O)N[C@@H](CCCCN)C(=O)N[C@@H](CCCN=C(N)N)C(=O)N[C@@H](Cc1c[nH]c2ccccc12)C(=O)N[C@@H](Cc1c[nH]c2ccccc12)C(=O)N[C@@H](Cc1c[nH]c2ccccc12)C(=O)N[C@@H](CCCN=C(N)N)C(=O)O` [IKWKRWWWR], the MIC in test [19] is ≥ 88.6 µM; in [4] it was 22.1 µM (≈ 32 µg/mL); in test [20], 22.1 µM (≈ 32 µg/mL); in [21], ≥ 88.6 µM; in [22], ≥ 88.6 µM; in [23] it was 22.1 µM (≈ 32 µg/mL). The minimal inhibitory concentration (MIC) in the test on Candida albicans C627 is 5.54 µM (≈ 8 µg/mL); in test [24] it was 22.1 µM (≈ 32 µg/mL).
As for `CC(C)C[C@H](NC(=O)[C@H](C)NC(=O)[C@H](CO)NC(=O)[C@H](CCCCN)NC(=O)[C@H](CC(C)C)NC(=O)[C@H](CC(C)C)NC(=O)[C@@H](N)CC(N)=O)C(=O)N[C@@H](CCCCN)C(=O)N[C@H](C(=O)N[C@H](C(=O)N[C@@H](CC(N)=O)C(=O)N[C@@H](CCCCN)C(=O)N[C@@H](CC(C)C)C(=O)N[C@@H](CC(C)C)C(=O)N[C@@H](C)C(=O)N[C@@H](C)C(=O)N[C@@H](CO)C(N)=O)C(C)C)[C@@H](C)O` [NLLKSALKTVNKLLAAS], the MIC in test [3] was 64 µM (≈ 114 µg/mL); in test [4], 128 µM (≈ 228 µg/mL); in [25] it was ≥ 32 µM; in [18], 64 µM (≈ 114 µg/mL); in [26], 64 µM (≈ 114 µg/mL).
As for `CC(C)C[C@H](NC(=O)CNC(=O)[C@H](CC(N)=O)NC(=O)[C@@H](NC(=O)[C@@H](NC(=O)CNC(=O)[C@H](CC(C)C)NC(=O)[C@H](C)NC(=O)[C@H](CC(=O)O)NC(=O)[C@H](CC(N)=O)NC(=O)[C@H](CC(C)C)NC(=O)[C@H](CC(C)C)NC(=O)[C@@H](N)CC(N)=O)[C@@H](C)O)C(C)C)C(=O)N[C@@H](CC(C)C)C(=O)NCC(=O)N[C@@H](CCCN=C(N)N)C(=O)N[C@@H](CO)C(=O)O` [NLLNDALGTVNGLLGRS], the MIC was 32 µM (≈ 55.3 µg/mL) in test [4] and ≥ 64 µM in test [25].
`C[C@H](NC(=O)[C@H](Cc1ccccc1)NC(=O)CNC(=O)[C@@H](N)CCCN=C(N)N)C(=O)N[C@@H](CCCN=C(N)N)C(=O)N[C@@H](CCCN=C(N)N)C(=O)O` [RGFARR]: in test [27], the MIC was ≥ 96 µM.
For the compound `CC(=O)N[C@@H](CCCN=C(N)N)C(=O)N[C@@H](Cc1c[nH]c2ccccc12)C(=O)N[C@H](C(=O)N[C@@H](Cc1c[nH]c2ccccc12)C(=O)N[C@@H](CCCN=C(N)N)C(=O)NCC(=O)N[C@@H](CO)C(=O)NCC(=O)N[C@@H](CCCN=C(N)N)C(=O)N[C@@H](Cc1c[nH]c2ccccc12)C(=O)N[C@H](C(=O)N[C@@H](Cc1c[nH]c2ccccc12)C(=O)N[C@@H](CCCN=C(N)N)C(N)=O)[C@@H](C)O)[C@@H](C)O` [RWTWRGSGRWTWR], the MIC in the test on Bacillus subtilis stood at 8.93 µM (≈ 16.4 µg/mL); in the test on Pseudomonas aeruginosa it was 69.8 µM (≈ 128 µg/mL); in the test with Acinetobacter baumannii it was 17.9 µM (≈ 32.7 µg/mL); with Escherichia coli, 8.93 µM (≈ 16.4 µg/mL); with Staphylococcus aureus, 4.47 µM (≈ 8.18 µg/mL); in [28], 0.794 µM (≈ 1.45 µg/mL). The MIC in test [29] was 25 µM (≈ 45.8 µg/mL); in test [30], ≥ 279 µM; against Micrococcus luteus, 8.93 µM (≈ 16.4 µg/mL).

Source of the values: DBAASP.
